Here are results for one molecule from patent publication US8420654B2 (Eli Lilly and Company, priority 2008, dated 2013).

One data set deals with CYP3A. The experiment in a line: Human CYP fingerprinting, ketoconazole inhibitor. Conditions: 4 μM, human liver microsomes, 30 min, ketoconazole 10 μM. In kind it is in vitro ADME. On the procedure:
(§1) CYP fingerprinting is well established technique and is used as an indication of potential risk of drug-drug interactions in the pharmaceutical sciences. Compounds of the present invention may be assayed by well known methods, essentially as follows: Compounds are incubated at 37° C. at a final concentration of 4 μM with pooled, mixed gender, human liver microsomes and 1 mM NADPH ([…]) (final conc.) for 0 and 30 min. without any CYP inhibitor and with each CYP inhibitor in separate incubations for 30 min. Each inhibitor is specific for an individual cytochrome P450. The specific inhibitors used for CYPs 2C9, 2D6 and 3A were sulfaphenazole, quinidine and ketoconazole, respectively. Ketoconazole (CYP3A) is made up at 25 mM in DMSO and then diluted in buffer to a final concetration of 10 μM. Quinidine (CYP2D6) is made up at 5 mM in 50/50 acetonitrile/water and then diluted in buffer to a final concetration of 10 μM. Sulfaphenazole (CYP2C9) is made up at 100 mM in DMSO and then diluted in buffer to a final concetration of 5 μM. Samples are analyzed by LC-MS in positive or negative electrospray mode using a Waters Acquity Ultra Performance LC coupled to a MicroMass Q-T of-2 mass spectrometer.
(§2) Data are analyzed using MetaboLynx™ version 4.1. With inhibitor present, a reduction in metabolite peak area of less than 30% (relative to the uninhibited control incubation) receives a designation of low risk of Drug Drug Interaction (DDI), a reduction in peak area between 30% and 70% receives a moderate risk of DDI and a reduction of more than 70% receives a high risk of DDI.
For orientation: Liver microsomes are vesicles of endoplasmic reticulum, rich in cytochrome P450 enzymes.

The next data set concerns the target T1, CYP2D6 (Homo sapiens, UniProt P10635).
T1 construct: pooled, mixed gender, human liver microsomes; from tissue; host or cells: pooled, mixed gender human liver microsomes
The experiment in a line: Human CYP fingerprinting, quinidine inhibitor. In kind it is in vitro ADME. The following applies: 4 μM, human liver microsomes, 30 min, quinidine 10 μM. The method, then:
as §1, §2

T1 sequence (P10635 whole entry): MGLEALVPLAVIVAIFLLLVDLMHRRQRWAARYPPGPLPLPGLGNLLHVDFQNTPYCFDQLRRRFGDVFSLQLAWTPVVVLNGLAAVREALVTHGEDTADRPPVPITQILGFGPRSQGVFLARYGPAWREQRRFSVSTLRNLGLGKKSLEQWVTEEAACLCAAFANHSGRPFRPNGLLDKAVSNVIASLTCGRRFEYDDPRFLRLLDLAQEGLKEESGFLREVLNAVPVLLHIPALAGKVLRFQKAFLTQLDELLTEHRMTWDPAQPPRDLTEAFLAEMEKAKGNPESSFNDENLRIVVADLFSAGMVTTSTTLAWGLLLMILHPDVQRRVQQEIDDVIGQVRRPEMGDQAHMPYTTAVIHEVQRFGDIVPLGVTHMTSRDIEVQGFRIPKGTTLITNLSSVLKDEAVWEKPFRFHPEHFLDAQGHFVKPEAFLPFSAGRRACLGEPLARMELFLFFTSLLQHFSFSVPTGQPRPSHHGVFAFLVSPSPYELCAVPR

Take `CC(C)(N[C@@H]1C[C@H](c2cccc(OC(F)(F)F)c2)N(c2ccc(C(F)(F)F)cc2)C1=O)c1ccnc(C(F)(F)F)n1` [Example 6, (3R,5R)-3-[1-Methyl-1-(2-trifluoromethyl-pyrimidin-4-yl)-ethylamino]-5-(3-trifluoromethoxy-phenyl)-1-(4-trifluoromethyl-phenyl)-pyrrolidin-2-one adipate]: the “Risk of Drug Drug Interaction (DDI) CYP3A” value in the data set with CYP3A is “low (a reduction in metabolite peak area of less than 30% (relative to the uninhibited control incubation) receives a designation of low risk of Drug Drug Interaction (DDI))”. Further, the “Risk of Drug Drug Interaction (DDI) CYP2D6” value at CYP2D6 is on record as “low (a reduction in metabolite peak area of less than 30% (relative to the uninhibited control incubation) receives a designation of low risk of Drug Drug Interaction (DDI))”.
